These results are taken from patent US20090131470A1, “PYRAZOLE-SUBSTITUTED BENZIMIDAZOLE DERIVATIVES FOR USE IN THE TREATMENT OF CANCER AND AUTOIMMUNE DISORDERS” (priority 2005, published 2009).

Holding throughout (format): biochemical
The target in one test is T1, PDK1 (Homo sapiens, UniProt O15530).
T1 sequence (O15530 1-556): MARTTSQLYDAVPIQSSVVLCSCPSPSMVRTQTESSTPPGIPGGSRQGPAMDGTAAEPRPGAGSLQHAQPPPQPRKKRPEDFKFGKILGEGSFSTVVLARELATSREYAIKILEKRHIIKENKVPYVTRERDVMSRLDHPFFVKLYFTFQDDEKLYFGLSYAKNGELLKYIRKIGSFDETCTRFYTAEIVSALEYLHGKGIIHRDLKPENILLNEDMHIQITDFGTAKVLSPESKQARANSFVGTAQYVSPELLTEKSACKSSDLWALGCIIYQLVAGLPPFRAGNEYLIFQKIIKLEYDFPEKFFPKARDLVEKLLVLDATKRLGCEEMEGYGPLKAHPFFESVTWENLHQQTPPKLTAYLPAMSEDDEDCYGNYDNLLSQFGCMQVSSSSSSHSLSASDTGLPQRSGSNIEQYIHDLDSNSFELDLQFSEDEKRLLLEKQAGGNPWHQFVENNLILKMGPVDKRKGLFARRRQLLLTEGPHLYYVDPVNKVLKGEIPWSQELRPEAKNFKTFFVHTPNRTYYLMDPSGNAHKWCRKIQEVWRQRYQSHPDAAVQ
The test can be described thus: PDK1 kinase assay (33P peptide phosphorylation). Conditions: 0.01 mM ATP, 60 min at 30° C.; read-out: PDK-1 IC50. The protocol: (§1) The assay mixture containing the inhibitor and PDK1 enzyme was mixed together in a microtiter plate in a final volume of 50 μl and incubated for 60 min at 30° C. The assay mixture contained 0.01 mM unlabeled ATP, 0.01 μCi/μl ^33P-γ-ATP, 0.075 mM peptide, 0.1 mg/ml BSA, 7.5 mM magnesium acetate, 0.05M Tris.HCl, pH 7.5, 0.5% 2-mercaptoethanol. The reaction was stopped by adding 50 μl of 50 mM phosphoric acid. 90 μl of the mixture were transferred to a pre-wetted 96-well Multiscreen MAPHNOB filtration plate (Millipore) and filtered on a vacuum manifold. The filter plate was washed with 3 successive additions of 200 μl 50 mM phosphoric acid and then with 100 μl methanol. The filtration plate was dried for 10 min at 65° C., scintillant added and phosphorylated peptide quantified in a scintillation counter (Trilux, PerkinElmer)

The target of the next test is T2, GST-Chk1 enzyme (Homo sapiens, UniProt O14757).
T2 sequence (O14757 1-476): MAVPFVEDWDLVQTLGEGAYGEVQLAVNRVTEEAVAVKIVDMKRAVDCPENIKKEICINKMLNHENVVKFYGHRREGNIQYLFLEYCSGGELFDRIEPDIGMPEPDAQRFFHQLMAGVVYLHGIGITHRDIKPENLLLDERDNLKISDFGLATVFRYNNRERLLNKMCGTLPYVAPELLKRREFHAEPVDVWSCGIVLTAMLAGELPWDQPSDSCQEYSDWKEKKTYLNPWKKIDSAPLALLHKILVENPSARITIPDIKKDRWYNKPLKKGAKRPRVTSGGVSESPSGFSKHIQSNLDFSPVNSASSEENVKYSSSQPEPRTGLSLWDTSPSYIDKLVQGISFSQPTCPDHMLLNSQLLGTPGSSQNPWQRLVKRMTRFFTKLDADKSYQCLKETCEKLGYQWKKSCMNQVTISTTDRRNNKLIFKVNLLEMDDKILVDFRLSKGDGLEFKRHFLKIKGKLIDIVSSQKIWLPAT
The test can be described thus: Chk1 kinase assay (33P Chktide phosphorylation). Conditions: 0.01 mM ATP, 40 minutes at 30° C.; read-out: CHK-1 IC50. The protocol: as §1, with “Chk1” for “PDK1”, “40 minutes” for “60 min”, “The assay mixture contained 0.01 mM unlabeled ATP, 0.01 μCi/μl ^33P-γ-ATP, 0.075 mM peptide, 0.1 mg/ml BSA, 7.5 mM magnesium acetate, 0.05M Tris.HCl, pH 7.5, 0.5% 2-mercaptoethanol.” left out, “was” for “were”, “multi-screen” for “Multiscreen”

The next test addresses T3, Akt1 (Homo sapiens, UniProt P31749).
T3 construct: purchased Upstate
The test can be described thus: Akt1 kinase assay (Histone H1 substrate). As to conditions: 200 μM ATP, read-out: AKT-1 IC50. The protocol:
(§2) Assays for the cyclin dependent kinase activity were carried out by monitoring the phosphorylation of a synthetic peptide, HATTPKKKRK. The assay mixture containing the inhibitor and CDK-2 enzyme, complexed with cyclin A (0.4 U/ml) was mixed together in a microtiter plate in a final volume of 50 μl and incubated for 40 min at 30° C. The assay mixture contained 0.1 mM unlabeled ATP, 0.01 μCi/μl ^33P-γ-ATP, 0.03 mM peptide, 0.1 mg/ml BSA, 7.5 mM magnesium acetate, 50 mM HEPES-NaOH, pH 7.5. The reaction was stopped by adding 50 μl of 50 mM phosphoric acid. 90 μl of the mixture were transferred to a pre-wetted 96-well Multiscreen MAPHNOB filtration plate (Millipore) and filtered on a vacuum manifold. The filter plate was washed with 3 successive additions of 200 μl 50 mM phosphoric acid and then with 100 μl methanol. The filtration plate was dried for 10 min at 65° C., scintillant added and phosphorylated peptide quantified in a scintillation counter (Trilux, PerkinElmer)
Protocol for the Akt assay is the same for CDK2 except that, 3 nM Akt1 (Upstate) was used with Histone H1 as substrate with a final ATP concentration of 200 μM. The reaction was incubated at 30° C. for 40 minutes.

Another test concerns the target T4, PKA (Homo sapiens, UniProt P17612).
T4 construct: purchased Upstate
The test can be described thus: PKA kinase assay (Kemptide substrate). As to conditions: 100 μM ATP. The protocol: as §2, with “The” for “Assays for the cyclin dependent kinase activity were carried out by monitoring the phosphorylation of a synthetic peptide, HATTPKKKRK. The”
The PKA assay was incubated at 30° C. for 30 minutes.

Test [1] deals with CDK-2 enzyme, complexed with cyclin A (Homo sapiens, UniProt P24941). Kind of test: CDK2 kinase assay (33P peptide phosphorylation). Conditions: 0.1 mM ATP, cyclin A complex. The protocol:
as §2, with “The” for “Assays for the cyclin dependent kinase activity were carried out by monitoring the phosphorylation of a synthetic peptide, HATTPKKKRK. The”

Structures are written as SMILES. pIC50: −log10 of the molar value.

T3 sequence (P31749 whole entry, species assumed): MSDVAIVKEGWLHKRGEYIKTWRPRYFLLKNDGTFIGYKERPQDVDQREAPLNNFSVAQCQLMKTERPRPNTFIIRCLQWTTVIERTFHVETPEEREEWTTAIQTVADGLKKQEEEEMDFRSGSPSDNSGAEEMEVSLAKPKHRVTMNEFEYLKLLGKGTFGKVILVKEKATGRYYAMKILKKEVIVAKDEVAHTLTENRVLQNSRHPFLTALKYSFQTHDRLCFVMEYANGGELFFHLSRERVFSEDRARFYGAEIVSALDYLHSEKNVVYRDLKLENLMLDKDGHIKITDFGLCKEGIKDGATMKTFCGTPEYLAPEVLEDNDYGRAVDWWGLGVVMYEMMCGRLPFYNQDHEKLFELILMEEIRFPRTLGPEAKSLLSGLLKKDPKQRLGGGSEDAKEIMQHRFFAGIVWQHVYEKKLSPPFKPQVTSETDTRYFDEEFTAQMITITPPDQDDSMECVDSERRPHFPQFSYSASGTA

As for `Cc1[nH]nc(-c2nc3cc(Cl)ccc3[nH]2)c1C(=O)NC1CCNCC1` [Example 17], the pIC50 on PDK1 was 6.72; at GST-Chk1 enzyme, 6.65; at Akt1, below 4.30; against PKA, 5.04; in test [1] it was 4.97.

Take `Cc1[nH]nc(-c2nc3cc4ccccc4cc3[nH]2)c1C(=O)NC1CCNCC1` [Example 5, 5-Methyl-3-(1H-naphtho[2,3-d]imidazol-2-yl)-1H-pyrazole-4-carboxylic Acid piperidine-4-ylamide]: the negative-log IC50 (pIC50) is 7.24 on PDK1; 8.00 at GST-Chk1 enzyme; below 4.30 on Akt1; 5.49 on PKA; 5.34 in test [1].

`Cc1[nH]nc(-c2nc3ccc(C4CC4)cc3[nH]2)c1C(=O)NC1CN2CCC1CC2` (stereo not drawn) [Example 47]: the negative-log IC50 (pIC50) on PDK1 is 6.97; at GST-Chk1 enzyme it was 7.07; on Akt1, below 5.00; at PKA, 5.42; in test [1] it was below 4.30.

As for `Cc1[nH]nc(-c2nc3ccc(-c4cc5ccccc5[nH]4)cc3[nH]2)c1C(=O)NC1CCNCC1` [Example 8, 3-[6-(1H-Indol-2-yl)-1H-benzimidazo-2-yl]-5-methyl-1H-pyrazole-4-carboxylic Acid piperidin-4-ylamide], the pIC50 was 7.72 at PDK1; 7.92 on GST-Chk1 enzyme; 5.23 on Akt1; 5.87 against PKA; 5.55 in test [1].

Consider `Cc1[nH]nc(-c2nc3cc(F)c(F)cc3[nH]2)c1C(=O)NC1CCNCC1` [Example 13], for which the pIC50 on PDK1 was 6.28; on GST-Chk1 enzyme it was 6.29; at Akt1 it was below 4.30; against PKA, 4.71; in test [1] it was 5.10.

`Cc1cc2nc(-c3n[nH]c(C)c3C(=O)NC3CCCNC3)[nH]c2cc1C` (stereo not drawn) [Example 2, 3-(5,6-Dimethyl-1H-benzoimidazol-2-yl)-5-methyl-1H-pyrazole-4-carboxylic Acid piperidin-3-ylamide]: the pIC50 was 6.66 at PDK1; 7.26 at GST-Chk1 enzyme; 4.80 at Akt1; 5.11 against PKA; 5.44 in test [1].

Consider `Cc1[nH]nc(-c2nc3ccccc3[nH]2)c1C(=O)NCCCCN` [Example 16], for which the pIC50 at PDK1 was 6.60; on GST-Chk1 enzyme it was 6.67; at Akt1, below 4.30; against PKA, 4.68; in test [1] it was 4.36.

On to `Cc1[nH]nc(-c2nc3cc(Cl)c(Cl)cc3[nH]2)c1C(=O)NC1CCNCC1` [Example 15], for which the pIC50 at PDK1 was 6.91; at GST-Chk1 enzyme, 6.53; on Akt1, below 4.30; against PKA, 5.05; in test [1], 5.32.

Take `Cc1[nH]nc(-c2nc3ccc(C(C)(C)C)cc3[nH]2)c1C(=O)NC1CCNCC1` [Example 37]: the negative logarithm of the IC50 (pIC50) is 7.31 at PDK1; 8.22 on GST-Chk1 enzyme; below 5.00 at Akt1; 5.31 against PKA; 5.73 in test [1].

With `Cc1[nH]nc(-c2nc3ccc(C(C)C)cc3[nH]2)c1C(=O)NC1CCN(C)CC1` [Example 46], the negative-log IC50 (pIC50) at PDK1 was 7.44; at GST-Chk1 enzyme, 7.85; at Akt1 it was below 5.00; against PKA, 5.42; in test [1] it was 4.62.

For `Cc1[nH]nc(-c2nc3ccc(NC(=O)C(C)C)cc3[nH]2)c1C(=O)NC1CCN(C)CC1` [Example 21], the pIC50 at PDK1 is 7.13; at GST-Chk1 enzyme, 8.22; at Akt1 it was below 4.30; against PKA it was 4.88; in test [1], 4.67.

Regarding `Cc1[nH]nc(-c2nc3cc4ccccc4cc3[nH]2)c1C(=O)NCC1CCCN1` (stereo not drawn) [Example 26], the negative-log IC50 (pIC50) was 6.28 on PDK1; 6.51 on GST-Chk1 enzyme; below 4.30 on Akt1; 4.46 against PKA; 4.47 in test [1].

As to `Cc1[nH]nc(-c2nc3ccc(C(F)(F)F)cc3[nH]2)c1C(=O)NC1CCNCC1` [Example 38], the pIC50 on PDK1 is 7.49; on GST-Chk1 enzyme, 7.24; at Akt1 it was below 5.00; against PKA it was 4.77; in test [1], 4.71.

On to `Cc1[nH]nc(-c2nc3ccccc3[nH]2)c1C(=O)NCCCN` [Example 4, 3-(1H-Benzoimidazol-2-yl)-5-methyl-1H-pyrazole-4-carboxylic Acid (3-amino-propyl)-amide], for which the pIC50 is 6.67 on PDK1; 7.51 on GST-Chk1 enzyme; below 4.30 on Akt1; 4.68 on PKA; 4.40 in test [1].

For the compound `Cc1[nH]nc(-c2nc3ccc(C(=O)NCC(C)c4ccccc4)cc3[nH]2)c1C(=O)NC1CCNCC1` (stereo not drawn) [Example 32], the pIC50 at PDK1 is 7.44; at GST-Chk1 enzyme, 8.52; on Akt1, 4.74; against PKA, 5.19; in test [1], 4.81.
